Data: patent US20260274832A1, “COMPOUNDS AND THEIR USE IN TREATING CANCER” (ASTRAZENECA AB, priority 2023, published 2026)

Key:
[1] = biological target: T1, AR (AR-full length) in LNCaP cells (Homo sapiens, UniProt P10275, T878A); experiment: LNCaP Androgen Receptor Imaging Assay (immunofluorescence of endogenous nuclear AR); format: cell-based; conditions: 24 h incubation; for DC50: concentration giving 50% of maximum degradation of AR per curve fit, single experiment or average of two or more; for Dmax: LNCaP; for Dmax / LNCaP AR Degradation Dmax: maximum degradation observed, normalized as % of positive control (prior art AR PROTAC at 3 μM)
T1 construct: the prostate cancer cell line LNCaP (expressing AR-full length); endogenous in cells; host or cells: LNCaP
T1 sequence (P10275 whole entry T878A): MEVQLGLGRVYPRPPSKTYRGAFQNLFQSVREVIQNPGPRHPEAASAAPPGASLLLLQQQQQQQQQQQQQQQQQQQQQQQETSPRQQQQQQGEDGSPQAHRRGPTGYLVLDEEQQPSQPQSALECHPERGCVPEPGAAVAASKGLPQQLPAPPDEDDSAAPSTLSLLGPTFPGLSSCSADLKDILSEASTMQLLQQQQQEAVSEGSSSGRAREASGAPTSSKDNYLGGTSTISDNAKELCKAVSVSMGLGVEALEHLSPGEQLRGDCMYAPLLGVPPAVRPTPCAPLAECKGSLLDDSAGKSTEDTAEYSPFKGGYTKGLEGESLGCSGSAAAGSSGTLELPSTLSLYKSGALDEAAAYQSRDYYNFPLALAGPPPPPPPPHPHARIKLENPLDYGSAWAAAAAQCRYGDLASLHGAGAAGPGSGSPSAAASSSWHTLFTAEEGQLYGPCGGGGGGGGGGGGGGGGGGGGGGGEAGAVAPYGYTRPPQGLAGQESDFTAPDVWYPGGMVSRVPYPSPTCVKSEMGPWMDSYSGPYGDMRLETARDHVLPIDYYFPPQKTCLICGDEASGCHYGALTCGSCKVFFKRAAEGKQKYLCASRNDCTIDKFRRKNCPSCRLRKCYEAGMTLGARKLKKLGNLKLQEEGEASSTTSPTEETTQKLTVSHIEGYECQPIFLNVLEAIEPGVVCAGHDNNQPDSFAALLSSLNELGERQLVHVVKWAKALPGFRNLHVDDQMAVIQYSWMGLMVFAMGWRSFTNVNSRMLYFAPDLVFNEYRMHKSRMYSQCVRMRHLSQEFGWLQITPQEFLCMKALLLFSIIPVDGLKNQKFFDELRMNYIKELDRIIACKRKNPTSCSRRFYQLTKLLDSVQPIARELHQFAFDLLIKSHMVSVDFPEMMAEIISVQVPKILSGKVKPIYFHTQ
T1 sequence (Q96SW2 whole entry partner): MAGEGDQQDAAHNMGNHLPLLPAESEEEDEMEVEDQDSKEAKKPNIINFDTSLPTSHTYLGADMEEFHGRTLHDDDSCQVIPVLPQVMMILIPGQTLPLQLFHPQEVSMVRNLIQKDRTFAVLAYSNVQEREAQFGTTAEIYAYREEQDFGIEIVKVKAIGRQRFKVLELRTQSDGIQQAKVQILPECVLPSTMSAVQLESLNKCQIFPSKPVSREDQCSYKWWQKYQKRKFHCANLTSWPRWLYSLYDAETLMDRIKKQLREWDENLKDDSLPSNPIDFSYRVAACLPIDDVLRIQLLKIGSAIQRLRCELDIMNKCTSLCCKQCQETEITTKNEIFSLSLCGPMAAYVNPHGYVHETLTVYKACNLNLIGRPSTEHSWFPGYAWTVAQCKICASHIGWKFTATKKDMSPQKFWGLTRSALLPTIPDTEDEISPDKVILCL
Outline: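 Endogenous nuclear AR level was imaged by immunofluorescence after 24 h compound exposure (12-point dose response, 0.3% DMSO, 37° C./5% CO2) in LNCaP cells. Data were expressed as % of a 3 μM prior-art AR PROTAC control and fitted (bell fit where a hook appeared) to give DC50 and maximum degradation Dmax.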

[2] = biological target: T2, AR (L702H) in LNCaP cells (Homo sapiens, UniProt P10275, L702H/T878A); experiment: LNCaP Androgen Receptor L702H Imaging Assay (LNCaP cells engineered by CRISPR/Cas9); format: cell-based; conditions: LNCaP cells with AR L702H mutation, 24 h incubation; for DC50: concentration giving 50% of maximum degradation of AR (L702H) per curve fit; for Dmax: LNCaP; for Dmax / LNCaP AR (L702H) Degradation Dmax: maximum degradation observed, normalized as % of positive control
T2 construct: engineered to introduce the mutation L702H into the AR gene using CRISPR/Cas9; endogenous in cells; host or cells: LNCaP cells edited by CRISPR/Cas9 at the AR gene
T2 sequence (P10275 whole entry L702H/T878A): as the sequence (P10275 whole entry T878A) above, with L702H counted along it
T2 sequence (Q96SW2 whole entry partner): as the sequence (Q96SW2 whole entry partner) above
Outline: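 AR (L702H) degradation, expressed as DC50 and Dmax from curve fits normalized to a positive degrader control, was measured by high-content imaging of anti-AR immunofluorescence. The engineered LNCaP line was dosed over 12 concentrations for 24 h, 0.3% DMSO final, before PFA fixation.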

SMILES | DC50 [1] [nM] | Dmax [1] [%] | DC50 [2] [nM] | Dmax [2] [%] | LNCaP AR Degradation Dmax [1] [%] | LNCaP AR (L702H) Degradation Dmax [2] [%]
N#Cc1c[nH]c2c(N3CCC(c4ccc(N5CC6(CCC(CN7CCN(c8ccc9c(c8)CN(C8CCC(=O)NC8=O)C9=O)CC7)CC6)C5)cc4)CC3)ccc(F)c12 (centres unmarked) [Example 128, 7-(4-{4-[7-({4-[2-(2,6-Dioxopiperidin-3-yl)-1-oxo-2,3-dihydro-1H-isoindol-5-yl]piperazin-1-yl}methyl)-2-azaspiro[3.5]nonan-2-yl]phenyl}piperidin-1-yl)-4-fluoro-1H-indole-3-carbonitrile] | 26 | 102 | 61 | 103 |  | 
COc1cc(N2CCN(CC3CCN(c4ccc(C5CCN(c6ccc(Cl)c7c(C#N)c[nH]c67)CC5)cc4)CC3)CC2)cc2c1C(=O)N(C1CCC(=O)NC1=O)C2=O (centres unmarked) [Example 49, 4-Chloro-7-(4-{4-[4-({4-[2-(2,6-dioxopiperidin-3-yl)-7-methoxy-1,3-dioxo-2,3-dihydro-1H-isoindol-5-yl]piperazin-1-yl}methyl)piperidin-1-yl]phenyl}piperidin-1-yl)-1H-indole-3-carbonitrile] | 33 | 91 | 45 | 97 |  | 
COc1nc(N2CCN(CC3CCN(c4ccc(C5CCN(c6ccc(F)c7c(C#N)n[nH]c67)CC5)cc4)CC3)CC2)cc2c1C(=O)N(C1CCC(=O)NC1=O)C2 (centres unmarked) [Example 144, 7-(4-{4-[4-({4-[2-(2,6-Dioxopiperidin-3-yl)-4-methoxy-3-oxo-2,3-dihydro-1H-pyrrolo[3,4-c]pyridin-6-yl]piperazin-1-yl}methyl)piperidin-1-yl]phenyl}piperidin-1-yl)-4-fluoro-1H-indazole-3-carbonitrile] | 21 | 97 | 95 | 75 |  | 
N#Cc1c[nH]c2c(C3CCCN(c4ccc(C5CCN(CC6CCN(c7ccc8c(c7)CN(C7CCC(=O)NC7=O)C8=O)CC6)CC5)cc4)C3)ccc(Cl)c12 (single isomer, unassigned) [Example 96, 4-Chloro-7-[(3R*)-1-{4-[1-({1-[2-(2,6-dioxopiperidin-3-yl)-1-oxo-2,3-dihydro-1H-isoindol-5-yl]piperidin-4-yl}methyl)piperidin-4-yl]phenyl}piperidin-3-yl]-1H-indole-3-carbonitrile] | 31 | 54 | 12 | 95 |  | 
COc1nc(N2CCN(CC3CCN(c4ccc(N5CCCC(c6ccc(Cl)c7c(C#N)c[nH]c67)C5)cc4)CC3)CC2)cc2c1C(=O)N(C1CCC(=O)NC1=O)C2 (single isomer, unassigned) [Example 92, 4-Chloro-7-[(3S*)-1-{4-[4-({4-[2-(2,6-dioxopiperidin-3-yl)-4-methoxy-3-oxo-2,3-dihydro-1H-pyrrolo[3,4-c]pyridin-6-yl]piperazin-1-yl}methyl)piperidin-1-yl]phenyl}piperidin-3-yl]-1H-indole-3-carbonitrile] |  |  |  |  | 100 | 100
N#Cc1c[nH]c2c(N3CCC(c4ccc(OCCCCN5CCN(c6ccc7c(c6)CN(C6CCC(=O)NC6=O)C7=O)CC5)cc4)CC3)cccc12 (centres unmarked) [Example 57] | 18 | 87 | 31 | 79 |  | 
N#Cc1c[nH]c2c(N3CCCC(c4ccc(N5CCC(CN6CCC(n7ccc8c(N9CCC(=O)NC9=O)cccc87)CC6)CC5)cn4)C3)ccc(Cl)c12 (single isomer, unassigned) [Example 66, 4-Chloro-7-[(3S*)-3-{5-[4-({4-[4-(2,4-dioxo-1,3-diazinan-1-yl)-1H-indol-1-yl]piperidin-1-yl}methyl)piperidin-1-yl]pyridin-2-yl}piperidin-1-yl]-1H-indole-3-carbonitrile] | 10 |  | 22 |  | 97 | 94
COc1nc(N2CCN(CC3CCN(c4ccc(C5CCN(c6ccc(Cl)c7c(C#N)n[nH]c67)CC5)cc4)CC3)CC2)cc2c1C(=O)N(C1CCC(=O)NC1=O)C2 (centres unmarked) [Example 143, 4-Chloro-7-(4-{4-[4-({4-[2-(2,6-dioxopiperidin-3-yl)-4-methoxy-3-oxo-2,3-dihydro-1H-pyrrolo[3,4-c]pyridin-6-yl]piperazin-1-yl}methyl)piperidin-1-yl]phenyl}piperidin-1-yl)-1H-indazole-3-carbonitrile] | 37 | 101 | 67 | 104 |  | 

The remaining compounds from weak to strong by DC50 [1], led by results:

DC50 [1] [nM] | Dmax [1] [%] | DC50 [2] [nM] | Dmax [2] [%] | LNCaP AR Degradation Dmax [1] [%] | LNCaP AR (L702H) Degradation Dmax [2] [%] | SMILES
10 | 105 | 16 | 107 |  |  | Cn1c(C2CCN(CC3CCN(c4ccc([C@@H]5CCCN(c6ccc(Cl)c7c(C#N)n[nH]c67)C5)cc4)CC3)CC2)cc2cc(F)c(N3CCC(=O)NC3=O)cc21 [Example 139, 4-Chloro-7-[(3S)-3-{4-[4-({4-[6-(2,4-dioxo-1,3-diazinan-1-yl)-5-fluoro-1-methyl-1H-indol-2-yl]piperidin-1-yl}methyl)piperidin-1-yl]phenyl}piperidin-1-yl]-1H-indazole-3-carbonitrile]
9 | 92 | 7 | 106 |  |  | N#Cc1c[nH]c2c(N3CCC[C@H](c4ccc(N5CCC(CN6CCC(n7ccc8c(N9CCC(=O)NC9=O)cccc87)CC6)CC5)cc4)C3)ccc(Cl)c12 [Example 26, 4-Chloro-7-[(3R)-3-{4-[4-({4-[4-(2,4-dioxo-1,3-diazinan-1-yl)-1H-indol-1-yl]piperidin-1-yl}methyl)piperidin-1-yl]phenyl}piperidin-1-yl]-1H-indole-3-carbonitrile]
8 | 85 | 7 | 107 |  |  | Cn1c(C2CCN(CC3CCN(c4ccc(C5CCN(c6ccc(Cl)c7c(C#N)c[nH]c67)CC5)cc4)CC3)CC2)cc2ncc(N3CCC(=O)NC3=O)cc21 [Example 103, 4-Chloro-7-(4-{4-[4-({4-[6-(2,4-dioxo-1,3-diazinan-1-yl)-1-methyl-1H-pyrrolo[3,2-b]pyridin-2-yl]piperidin-1-yl}methyl)piperidin-1-yl]phenyl}piperidin-1-yl)-1H-indole-3-carbonitrile]
8 | 92 | 7 | 103 |  |  | N#Cc1c[nH]c2c(N3CCC[C@H](c4ccc(N5CCC(CN6CCN(c7ccc8c(c7)CN(C7CCC(=O)NC7=O)C8=O)CC6)CC5)cc4)C3)ccc(Cl)c12 (stereo partly drawn) [Example 21, 4-Chloro-7-[(3R)-3-{4-[4-({4-[2-(2,6-dioxopiperidin-3-yl)-1-oxo-2,3-dihydro-1H-isoindol-5-yl]piperazin-1-yl}methyl)piperidin-1-yl]phenyl}piperidin-1-yl]-1H-indole-3-carbonitrile]
4 | 85 | 37 | 92 |  |  | N#Cc1c[nH]c2c(N3CCC(NC(=O)c4ccc(N5CCC(N6CCN(c7cc8c(cc7F)C(=O)N(C7CCC(=O)NC7=O)C8=O)CC6)CC5)cn4)CC3)ccc(Cl)c12 (centres unmarked) [Example 166, N-[1-(4-Chloro-3-cyano-1H-indol-7-yl)piperidin-4-yl]-5-(4-{4-[2-(2,6-dioxopiperidin-3-yl)-6-fluoro-1,3-dioxo-2,3-dihydro-1H-isoindol-5-yl]piperazin-1-yl}piperidin-1-yl)pyridine-2-carboxamide]
2 | 108 | 2 | 114 |  |  | Cc1cc(C(=O)NC2CCN(c3ccc(Cl)c4c(C#N)c[nH]c34)CC2)ccc1N1CCC(CN2CCC(n3ccc4c(N5CCC(=O)NC5=O)cccc43)CC2)CC1 [Example 164, N-[1-(4-Chloro-3-cyano-1H-indol-7-yl)piperidin-4-yl]-4-[4-({4-[4-(2,4-dioxo-1,3-diazinan-1-yl)-1H-indol-1-yl]piperidin-1-yl}methyl)piperidin-1-yl]-3-methylbenzamide]
1 | 104 | 7 | 107 |  |  | Cn1c(C2CCN(CC3CCN(c4ccc(C(=O)NC5CCN(c6ccc(Cl)c7c(C#N)c[nH]c67)CC5)c(F)c4)CC3)CC2)cc2ccc(N3CCC(=O)NC3=O)cc21 [Example 158, N-[1-(4-Chloro-3-cyano-1H-indol-7-yl)piperidin-4-yl]-4-[4-({4-[6-(2,4-dioxo-1,3-diazinan-1-yl)-1-methyl-1H-indol-2-yl]piperidin-1-yl}methyl)piperidin-1-yl]-2-fluorobenzamide]
1 | 107 | 2 | 113 |  |  | Cc1cc(N2CCC(CN3CCC(n4ccc5c(N6CCC(=O)NC6=O)cccc54)CC3)CC2)cc(F)c1C(=O)NC1CCN(c2ccc(Cl)c3c(C#N)c[nH]c23)CC1 [Example 163, N-[1-(4-Chloro-3-cyano-1H-indol-7-yl)piperidin-4-yl]-4-[4-({4-[4-(2,4-dioxo-1,3-diazinan-1-yl)-1H-indol-1-yl]piperidin-1-yl}methyl)piperidin-1-yl]-2-fluoro-6-methylbenzamide]
